Test results taken from US20150293106A1, “DIAROMATIC AMINO ACID SUBSTRATE FOR CATHEPSIN DETECTION” (INDUSTRY-ACADEMIC COOPERATION FOUNDATION, YONSEI UNIVERSITY, priority 2012, published 2015).
Read-outs that look alike come from different tables or passages of the source. Marks after values point to notes of the source that are not given here. Where no end group is shown, it is not given here. [ ]: non-standard residue; d: D form. The star is where a group is joined. Dnp = O=[N+]([O-])c1ccc(*)c([N+](=O)[O-])c1; 2Abz = Nc1ccccc1C(=O)O

Columns and labels:
[1] = biological target: T1, cathepsin B (Homo sapiens, UniProt P07858); details: reported for other substances, cited from earlier work
[2] = biological target: T2, thermolysin (Bacillus thermoproteolyticus, UniProt P00800); details: substrate 2.5 μM, protease 0.1 μM, two hours; hydrolysate amino acid-INH
Procedure: (§1) For the meaningful comparison of proteases, a hydrolysis reaction was performed under the optimum conditions as reported in other documents (regarding chymotrypsin, subtilisin, thermolysin and pepsin, refer to R. Beynon, J. S. Bond, Proteolytic Enzymes (Second Edition), Oxford University Press, 2001, pp. 295-316; regarding trypsin, proteinase K, carboxy peptidase A, collagenase, dispase, aspergillopepsin, papain, chymopapain, bromelain, cathepsin B, cathepsin L, and cathepsin S, refer to the catalog of Sigma-Aldrich Corporation).
(§2) Before the reaction, the mixtures of the reaction buffer solutions and proteases were previously incubated for 30 minutes in a water bath in which the temperature was adjusted to an analysis temperature. The hydrolysis reaction was initiated by adding a substrate dissolved in DMSO. The volume of the added substrate solution was controlled such that the final concentration of DMSO was lower than 1.5% (v/v).
The λex and λem were respectively adjusted to 284 nm and 410 nm with respect to papain, chymopapain, bromelain, cathepsins, aspergillopepsin and pepsin, and the λex and λem were respectively adjusted to 320 nm and 410 nm with respect to chymotrypsin, trypsin, subtilisin, proteinase K, thermolysin, carboxypeptidase A, collagenase and dispase. The reaction was performed under alkaline conditions.
The fluorescence measured at the end of the reaction was expressed as a final fluorescence.
The initial concentrations of each substrate and protease were respectively set to 2.5 μM and 0.1 μM. The hydrolysis reaction was performed for two hours. Reference numbers on an X-axis denoted the following: C1=papain; C2=chymopapain; C3=bromelain; S1=chymotrypsin; S2=trypsin; S3=subtilisin; S4=proteinase K; M1=thermolysin; M2=carboxypeptidase A; M3=dispase; M4=collagenase; A1=pepsin; and A2=aspergillopepsin. Each experiment was repeated at least three times.

[3] = biological target: T3, dispase (Paenibacillus polymyxa, UniProt P29148); test: Protease-catalyzed hydrolysis, restored DBDY fluorescence (selectivity, FIGS. 11-19); format: biochemical, bacillus polymyxa; details: substrate 2.5 μM, protease 0.1 μM, two hours; hydrolysate amino acid-INH
T3 construct: dispase derived from bacillus polymyxa; purchased Sigma-Aldrich Chemical Co; host or cells: Bacillus polymyxa
Procedure: (§3) The reaction was performed under alkaline conditions.
The hydrolysis reaction was performed for two hours. […] Each experiment was repeated at least three times.

[4] = biological target: T4, cathepsin L (Homo sapiens, UniProt P07711); test: Selective hydrolysis by cathepsins, fluorescence (FIG. 20); format: biochemical; details: inventors' earlier research on DBDY-(INH)2; conditions not given
T4 construct: cathepsins B and L derived from a human liver; purchased Sigma-Aldrich Chemical Co; host or cells: human liver
Procedure: as §3
(§4) The results of experiments were illustrated in FIG. 20. Since the hydrolysis by cathepsin B was faster than the hydrolyses by papain and chymopapain, the reaction was performed with a substrate (concentration: 1.0 μM) and a protease (concentration: […]) of which the concentrations were set lower than those in Experimental Example 2 (substrate (concentration: 2.5 μM) and protease (concentration: 0.1 μM) reacted for two hours) for 30 minutes in FIG. 20. C1, C2, CB, CL, and CS represented on an X-axis respectively denote papain, chymopapain, cathepsin B, cathepsin L, and cathepsin S. Each experiment was repeated at least three times.

[5] = biological target: T1, cathepsin B; test: as above; format: biochemical; design: cathepsins B and L derived from a human liver; purchased Sigma-Aldrich Chemical Co; host or cells: human liver; details: inventors' earlier research on DBDY-(INH)2; conditions not given
Procedure: as §3, §4

[6] = biological target: T5, chymotrypsin (Bos taurus, UniProt P00766); test: Degree of hydrolysis by protease (Table 3); format: biochemical, bovine; details: after 2 hours, protease 10 μM, substrate 0.2 mM (G1-G3, L1-L3) or 0.1 mM (G4, L4), n.d. = no hydrolysis was detected, hydrolysate Gly-INH (G), Lys-INH (L1-L3)
T5 construct: chymotrypsin and trypsin derived from fetal bovine pancreas; purchased Sigma-Aldrich Chemical Co; host or cells: bovine pancreas
Procedure: (§5) A hydrolysate was measured using a HPLC system.

[7] = biological target: T6, trypsin (Bos taurus, UniProt P00760); test: Degree of hydrolysis by protease (Table 3); format: biochemical, bovine; details: after 2 hours; protease 10 μM; substrate 0.2 mM (G1-G3, L1-L3) or 0.1 mM (G4, L4); n.d. = no hydrolysis was detected; hydrolysate INH
T6 construct: chymotrypsin and trypsin derived from fetal bovine pancreas; purchased Sigma-Aldrich Chemical Co; host or cells: bovine pancreas
T6 sequence (P00760 24-246): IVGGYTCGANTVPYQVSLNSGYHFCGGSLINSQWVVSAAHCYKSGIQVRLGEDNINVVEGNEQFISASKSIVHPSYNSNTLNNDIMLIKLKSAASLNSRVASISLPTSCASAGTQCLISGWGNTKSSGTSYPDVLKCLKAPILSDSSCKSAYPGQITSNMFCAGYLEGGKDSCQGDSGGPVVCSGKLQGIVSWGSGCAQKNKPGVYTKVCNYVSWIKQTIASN
Procedure: as §5

[8] = biological target: T7, papain (Carica papaya, UniProt P00784); test: Degree of hydrolysis by protease (Table 3); format: biochemical, papaya latex; details: after 2 hours; protease 10 μM; substrate 0.2 mM (G1-G3, L1-L3) or 0.1 mM (G4, L4); hydrolysate INH
T7 construct: papain and chymopapain derived from papaya latex; purchased Sigma-Aldrich Chemical Co; host or cells: papaya latex
T7 sequence (P00784 134-345): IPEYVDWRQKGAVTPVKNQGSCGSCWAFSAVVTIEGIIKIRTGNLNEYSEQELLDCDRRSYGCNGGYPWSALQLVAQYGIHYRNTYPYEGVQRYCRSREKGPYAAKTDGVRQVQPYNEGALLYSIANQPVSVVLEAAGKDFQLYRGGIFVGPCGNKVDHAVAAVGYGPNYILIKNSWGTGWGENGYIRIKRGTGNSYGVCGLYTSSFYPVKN
Procedure: as §5

[9] = biological target: T2, thermolysin; details: after 2 hours; protease 10 μM; substrate 0.2 mM (G1-G3, L1-L3) or 0.1 mM (G4, L4); n.d. = no hydrolysis was detected; hydrolysate INH
Procedure: as §1, §2
A hydrolysate was measured using a HPLC system. In order to prepare a sample, a hydrolysis reaction was terminated by adding 2% (v/v) 1M HCl with respect to a serine protease, cysteine protease and metalloprotease, and adding 1M NaOH with respect to an aspartic protease. The separation was performed using the mixture of 10 mM-ammonium bicarbonate and acetonitrile as an eluent in C-18 column (particle size: 5 μm, 250 mm×4.6 mm, pore size: 80 Å, Phenomenex, USA). The elution was performed for 15 minutes, while the linear gradient of acetonitrile was increased from 0 to 60%. The flow rate and separation temperature of the eluent were maintained at 1 mL min^−1 and 35° C. The hydrolysate was detected at a wavelength of 254 nm.
Based on the report that a hydrophobic amino acid such as phenylalanine was preferred at a P2 position in most of the papain-like cysteine proteases, Boc-aromatic amino acid-Gly-INH and Boc-aromatic amino acid-Lys-INH were prepared in particular, and experimented as a substrate with respect to chymotrypsin, trypsin, papain, pepsin and thermolysis.

[10] = biological target: T8, pepsin (Sus scrofa, UniProt P00791); test: Degree of hydrolysis by protease (Table 3); format: biochemical, pig; details: after 2 hours; protease 10 μM; substrate 0.2 mM (G1-G3, L1-L3) or 0.1 mM (G4, L4); n.d. = no hydrolysis was detected; hydrolysate INH
T8 construct: pepsin derived from pig gastric mucosa; purchased Sigma-Aldrich Chemical Co; host or cells: pig gastric mucosa
Procedure: as §5

T3 sequence (P29148 287-590): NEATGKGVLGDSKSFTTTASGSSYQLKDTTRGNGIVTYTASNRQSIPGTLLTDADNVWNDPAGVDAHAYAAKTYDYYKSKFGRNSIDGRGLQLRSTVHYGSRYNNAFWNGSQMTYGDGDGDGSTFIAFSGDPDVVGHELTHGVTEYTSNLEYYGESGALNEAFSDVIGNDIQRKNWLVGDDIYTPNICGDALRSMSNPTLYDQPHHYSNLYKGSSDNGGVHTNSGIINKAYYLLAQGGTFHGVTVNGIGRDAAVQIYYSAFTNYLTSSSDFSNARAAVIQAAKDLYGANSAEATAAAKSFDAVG
T8 sequence (P00791 60-385): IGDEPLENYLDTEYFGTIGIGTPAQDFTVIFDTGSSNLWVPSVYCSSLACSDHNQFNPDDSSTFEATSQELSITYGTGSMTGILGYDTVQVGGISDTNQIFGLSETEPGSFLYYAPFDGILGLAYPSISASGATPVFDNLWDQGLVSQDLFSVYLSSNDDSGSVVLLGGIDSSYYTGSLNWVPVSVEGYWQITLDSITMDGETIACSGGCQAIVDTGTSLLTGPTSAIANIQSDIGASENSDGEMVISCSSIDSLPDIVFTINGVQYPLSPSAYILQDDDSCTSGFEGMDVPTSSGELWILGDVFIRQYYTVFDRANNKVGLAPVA
T2 sequence (P00800 233-548): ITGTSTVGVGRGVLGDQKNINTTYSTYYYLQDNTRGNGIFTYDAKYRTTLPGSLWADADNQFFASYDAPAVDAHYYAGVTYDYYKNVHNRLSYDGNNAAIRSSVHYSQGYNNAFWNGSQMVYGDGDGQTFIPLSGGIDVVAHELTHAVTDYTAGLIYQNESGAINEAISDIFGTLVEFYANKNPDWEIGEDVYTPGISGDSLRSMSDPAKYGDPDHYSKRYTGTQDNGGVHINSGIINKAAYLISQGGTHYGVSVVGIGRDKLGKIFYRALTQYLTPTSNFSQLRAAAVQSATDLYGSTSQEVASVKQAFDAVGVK
T4 sequence (P07711 114-333): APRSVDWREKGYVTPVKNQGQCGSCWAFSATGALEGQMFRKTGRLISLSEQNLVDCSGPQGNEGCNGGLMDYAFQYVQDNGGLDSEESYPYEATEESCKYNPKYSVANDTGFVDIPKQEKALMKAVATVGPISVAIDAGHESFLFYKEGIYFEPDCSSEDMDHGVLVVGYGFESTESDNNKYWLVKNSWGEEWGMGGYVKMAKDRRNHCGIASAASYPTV

Molecule | sensitivity for thermolysin (hydrolysis, increased fluorescence) [2] | sensitivity for dispase (hydrolysis, increased fluorescence) [3] | degree of hydrolysis by Chymotrypsin [6] | degree of hydrolysis by Papain [8] [%] | further results
Abz-Gly-Ile-Val-Arg-Ala-Lys(Dnp)-OH ([2Abz]GIVRAK(Dnp)-OH) | – | – | – | – | Km ([1]; unit inferred): 5.9 µM
CSCC[C@H](NC(=O)C(Cc1ccc(O)c(-c2cc(CC(NC(=O)OC(C)(C)C)C(=O)N[C@@H](CCSC)C(=O)NNC(=O)c3ccncc3)ccc2O)c1)NC(=O)OC(C)(C)C)C(=O)NNC(=O)c1ccncc1 (stereo partly shown) [DBDY-(Met-INH)2] | high sensitivity | high sensitivity | – | – | –
CC(C)(C)OC(=O)NC(Cc1ccc(O)c(-c2cc(CC(NC(=O)OC(C)(C)C)C(=O)NNC(=O)c3ccncc3)ccc2O)c1)C(=O)NNC(=O)c1ccncc1 (stereo not shown) [DBDY-(INH)2, reference compound] | – | – | – | – | hydrolysis by cathepsin L [4]: not hydrolyzed; hydrolysis by cathepsin B [5]: not hydrolyzed
CC(C)[C@H](NC(=O)C(Cc1ccc(O)c(-c2cc(CC(NC(=O)OC(C)(C)C)C(=O)N[C@H](C(=O)NNC(=O)c3ccncc3)C(C)C)ccc2O)c1)NC(=O)OC(C)(C)C)C(=O)NNC(=O)c1ccncc1 (stereo partly shown) [DBDY-(Val-INH)2] | high sensitivity | high sensitivity | – | – | –
CC(C)(C)OC(=O)NC(Cc1c[nH]c2ccccc12)C(=O)NC(CCCCN)C(=O)NNC(=O)c1ccncc1 (stereo not drawn) [Substrate L3, Boc-Trp-Lys-INH] | – | – | 58.3 ± 1.2 ^e % | 93.1 ± 8.9 | degree of hydrolysis by Trypsin [7]: 85.1 ± 3.7%; degree of hydrolysis by Thermolysin [9]: 4.04 ± 0.08%
Abz-Phe-Phe-Dap(Dnp)-Trp-OH | – | – | – | – | Km [1]: 2.1 µM
Abz-Phe-Arg-Dap(Dnp)-Trp-OH | – | – | – | – | Km [1]: 3 µM
CC(C)(C)OC(=O)NC(Cc1c[nH]c2ccccc12)C(=O)NCC(=O)NNC(=O)c1ccncc1 (stereo not drawn) [Substrate G3, Boc-Trp-Gly-INH] | – | – | 17.3 ± 5.5 ^d % | 58.8 ± 6.2 | degree of hydrolysis by Pepsin [10]: 3.21 ± 0.45%; degree of hydrolysis by Thermolysin [9]: 0.74 ± 0.05%
CC(C)(C)OC(=O)NC(Cc1ccc(O)cc1)C(=O)NCC(=O)NNC(=O)c1ccncc1 (stereo not drawn) [Substrate G1, Boc-Tyr- Gly-INH] | – | – | 38.7 ± 2.9 ^d % | 62.8 ± 2.5 | degree of hydrolysis by Pepsin [10]: 2.34 ± 0.45%; degree of hydrolysis by Thermolysin [9]: 0.74 ± 0.02%
CC(C)C[C@H](NC(=O)C(Cc1ccc(O)c(-c2cc(CC(NC(=O)OC(C)(C)C)C(=O)N[C@@H](CC(C)C)C(=O)NNC(=O)c3ccncc3)ccc2O)c1)NC(=O)OC(C)(C)C)C(=O)NNC(=O)c1ccncc1 (stereo partly shown) [DBDY-(Leu-INH)2] | high sensitivity | high sensitivity | – | – | –
CC[C@H](C)[C@H](NC(=O)C(Cc1ccc(O)c(-c2cc(CC(NC(=O)OC(C)(C)C)C(=O)N[C@H](C(=O)NNC(=O)c3ccncc3)[C@@H](C)CC)ccc2O)c1)NC(=O)OC(C)(C)C)C(=O)NNC(=O)c1ccncc1 (stereo partly shown) [DBDY-(Ile-INH)2] | high sensitivity | high sensitivity | – | – | –
CC(C)(C)OC(=O)NC(Cc1ccccc1)C(=O)NC(CCCCN)C(=O)NNC(=O)c1ccncc1 (stereo not drawn) [Substrate L2, Boc-Phe-Lys-INH] | – | – | 53.2 ± 4.8 ^e % | 89.1 ± 2.5 | degree of hydrolysis by Trypsin [7]: 81.2 ± 4.9%
CC(C)(C)OC(=O)NC(Cc1ccc(O)c(-c2cc(CC(NC(=O)OC(C)(C)C)C(=O)N[C@@H](Cc3ccccc3)C(=O)NNC(=O)c3ccncc3)ccc2O)c1)C(=O)N[C@@H](Cc1ccccc1)C(=O)NNC(=O)c1ccncc1 (stereo partly shown) [DBDY-(Phe-INH)2] | high sensitivity | high sensitivity | – | – | –
CC(C)(C)OC(=O)NC(Cc1ccccc1)C(=O)NCC(=O)NNC(=O)c1ccncc1 (stereo not drawn) [Substrate G2, Boc-Phe-Gly-INH] | – | – | 28.6 ± 3.4 ^d % | 51.0 ± 3.5 | degree of hydrolysis by Pepsin [10]: 1.61 ± 0.05%
CC(C)(C)OC(=O)NC(Cc1ccc(O)cc1)C(=O)NC(CCCCN)C(=O)NNC(=O)c1ccncc1 (stereo not drawn) [Substrate L1, Boc-Tyr-Lys-INH] | – | – | 37.6 ± 5.2 ^e % | 77.4 ± 5.8 | degree of hydrolysis by Trypsin [7]: 69.6 ± 4.1%; degree of hydrolysis by Pepsin [10]: 0.74 ± 0.04%
